Tested on: rat C2 hemisection (C2HS) model of spinal cord injury
Experiment: rat C2 hemisection (C2HS) model of spinal cord injury, recovery monitored by diaphragm EMG
Assay type: in vivo
Procedure: A representative compound of this disclosure, Compound 1, was used in treating spinal cord injury in rats. The rat C2 hemisection (C2HS) model of spinal cord injury was used in this experiment. The spinal cord injury was modeled in rats by hemi-section at the level of C2 followed by monitoring of lesion and recovery was conducted by one of the following methods: diaphragm EMG, transdiaphragmatic pressure, and ventilatory behaviors.
Seven rats were treated with Compound 1 (30 mg/kg) and 8 rats were treated with a vehicle (0.5% DMSO in phosphate buffered saline) for 14 days and their recovery was monitored. […] Also, the magnitude of recovery was an average 54% among recovered compound-treated rats as compared to vehicle-treated rats.
Similar experiment was carried out separately using 4 rats and it provided similar results as those described above.

[1] = separate similar experiment using 4 rats

OCCOCCOCCOCCOc1ccc(-c2nc3ccccc3s2)cc1 [Compound 1]
recovery compared with brain derived neurotrophic factor approaches (30 mg/kg for 14 days): greater than that seen for brain derived neurothrophic factor approaches | rats recovered as judged by diaphragm EMG (30 mg/kg for 14 days, seven rats, by day 14 post lesion): 86% | magnitude of recovery (average) among recovered compound-treated rats as compared to vehicle-treated rats (30 mg/kg for 14 days, diaphragm EMG): 54% | recovery from spinal cord injury as judged by diaphragm EMG (FIG. 1A) (rats treated with compound vs vehicle (0.5% DMSO in PBS)): enhancement of recovery | % recovery as compared to vehicle-treated rats [1]: greater % recovery | magnitude of recovery as compared to vehicle-treated rats [1]: greater magnitude of recovery

From US20240156791A1, “METHODS OF TREATING SPINAL CORD INJURY OR DAMAGE” (Spinogenix, Inc., priority 2021, published 2024)
